US20150307520A1, “NOVEL HETEROARYL AND HETEROCYCLE COMPOUNDS, COMPOSITIONS AND METHODS THEREOF” (HUTCHISON MEDIPHARMA LIMITED, priority 2012, published 2015)

Tests used:
Type in all cases: biochemical
[1] = biological target: p110γ (Homo sapiens, UniProt P48736); experiment: Transcreener KINASE Assay, kinase inhibition of p110γ; conditions: for PI3Kγ IH % @ 1 uM: 1 uM test compound; for IC50: read-out: PI3Kγ IC50
In short: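 ADP-detecting fluorescence polarization immunoassay run as two-step endpoint: kinase reaction for 80 min, detection for 60 min, both at room temperature. Enzymes are recombinant p110 isoforms with p85α, except p110γ. IC50s derived from fitted inhibition curves.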

[2] = biological target: p110β/p85α (Homo sapiens, UniProt P42338); experiment: Transcreener KINASE Assay, kinase inhibition of p110β/p85α; conditions: for PI3Kβ IH % @ 1 uM: 1 uM test compound; for IC50: read-out: PI3Kβ IC50
In short: (§1)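 ADP production was read by fluorescence polarization immunoassay (60 min detection step) after an 80 min room-temperature reaction of p110/p85α enzyme, compound in 2% DMSO, and PIP2/ATP solution (30 uM/10 uM as added) in HEPES buffer with MgCl2 and DTT. IC50s came from inhibition versus the DMSO control.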

[3] = biological target: p110δ/p85α (Homo sapiens, UniProt O00329); experiment: Transcreener KINASE Assay, kinase inhibition of p110δ/p85α; conditions: for PI3Kδ IH % @ 1 uM: 1 uM test compound; for IC50: read-out: PI3Kδ IC50
In short: as §1

Chain of p110β/p85α (P42338 whole entry): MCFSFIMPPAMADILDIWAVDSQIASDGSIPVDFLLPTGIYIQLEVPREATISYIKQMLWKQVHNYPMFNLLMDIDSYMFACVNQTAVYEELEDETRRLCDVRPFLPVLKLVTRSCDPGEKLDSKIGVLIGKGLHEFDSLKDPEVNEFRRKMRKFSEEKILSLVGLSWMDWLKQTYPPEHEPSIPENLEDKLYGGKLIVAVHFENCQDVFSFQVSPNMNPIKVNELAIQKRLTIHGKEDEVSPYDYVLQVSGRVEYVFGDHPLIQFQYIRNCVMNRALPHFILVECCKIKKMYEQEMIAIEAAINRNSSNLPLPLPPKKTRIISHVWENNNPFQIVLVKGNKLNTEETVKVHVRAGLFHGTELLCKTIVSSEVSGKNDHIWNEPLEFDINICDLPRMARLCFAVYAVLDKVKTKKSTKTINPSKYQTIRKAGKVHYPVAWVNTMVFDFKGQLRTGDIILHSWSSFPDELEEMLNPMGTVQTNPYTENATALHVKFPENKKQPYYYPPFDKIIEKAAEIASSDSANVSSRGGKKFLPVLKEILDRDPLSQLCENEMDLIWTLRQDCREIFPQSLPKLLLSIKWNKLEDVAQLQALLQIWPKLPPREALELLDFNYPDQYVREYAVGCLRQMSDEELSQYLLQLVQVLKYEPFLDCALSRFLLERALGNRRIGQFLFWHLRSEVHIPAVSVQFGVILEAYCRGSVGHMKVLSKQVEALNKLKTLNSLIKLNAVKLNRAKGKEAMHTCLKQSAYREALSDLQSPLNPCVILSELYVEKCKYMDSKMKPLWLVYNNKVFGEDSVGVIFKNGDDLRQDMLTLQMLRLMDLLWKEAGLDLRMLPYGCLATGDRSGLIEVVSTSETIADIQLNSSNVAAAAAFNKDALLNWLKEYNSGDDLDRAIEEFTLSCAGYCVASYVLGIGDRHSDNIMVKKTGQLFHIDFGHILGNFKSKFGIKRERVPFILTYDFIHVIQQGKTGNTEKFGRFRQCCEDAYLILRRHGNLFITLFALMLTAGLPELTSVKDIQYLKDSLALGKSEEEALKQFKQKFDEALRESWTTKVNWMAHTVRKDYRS
Chain of p110β/p85α (P27986 2-724 partner): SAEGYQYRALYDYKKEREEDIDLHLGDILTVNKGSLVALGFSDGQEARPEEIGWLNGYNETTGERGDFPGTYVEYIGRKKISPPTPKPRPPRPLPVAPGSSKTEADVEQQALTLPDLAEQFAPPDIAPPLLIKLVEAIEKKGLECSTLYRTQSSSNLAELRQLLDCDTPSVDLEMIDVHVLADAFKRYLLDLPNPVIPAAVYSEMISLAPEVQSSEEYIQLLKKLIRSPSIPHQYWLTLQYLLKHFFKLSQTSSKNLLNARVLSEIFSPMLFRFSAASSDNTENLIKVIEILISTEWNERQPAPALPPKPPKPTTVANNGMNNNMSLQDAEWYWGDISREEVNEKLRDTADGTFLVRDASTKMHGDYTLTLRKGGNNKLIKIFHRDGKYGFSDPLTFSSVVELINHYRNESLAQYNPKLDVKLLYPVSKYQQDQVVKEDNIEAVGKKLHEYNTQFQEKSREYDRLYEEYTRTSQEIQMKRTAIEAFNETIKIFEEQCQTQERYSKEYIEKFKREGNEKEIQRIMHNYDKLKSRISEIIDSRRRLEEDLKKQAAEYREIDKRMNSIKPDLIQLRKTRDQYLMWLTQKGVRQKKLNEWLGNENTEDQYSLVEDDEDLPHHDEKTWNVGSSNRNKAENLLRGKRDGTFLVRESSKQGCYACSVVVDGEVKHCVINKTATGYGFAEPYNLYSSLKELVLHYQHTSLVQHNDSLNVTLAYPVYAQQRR
Chain of p110δ/p85α (O00329 whole entry): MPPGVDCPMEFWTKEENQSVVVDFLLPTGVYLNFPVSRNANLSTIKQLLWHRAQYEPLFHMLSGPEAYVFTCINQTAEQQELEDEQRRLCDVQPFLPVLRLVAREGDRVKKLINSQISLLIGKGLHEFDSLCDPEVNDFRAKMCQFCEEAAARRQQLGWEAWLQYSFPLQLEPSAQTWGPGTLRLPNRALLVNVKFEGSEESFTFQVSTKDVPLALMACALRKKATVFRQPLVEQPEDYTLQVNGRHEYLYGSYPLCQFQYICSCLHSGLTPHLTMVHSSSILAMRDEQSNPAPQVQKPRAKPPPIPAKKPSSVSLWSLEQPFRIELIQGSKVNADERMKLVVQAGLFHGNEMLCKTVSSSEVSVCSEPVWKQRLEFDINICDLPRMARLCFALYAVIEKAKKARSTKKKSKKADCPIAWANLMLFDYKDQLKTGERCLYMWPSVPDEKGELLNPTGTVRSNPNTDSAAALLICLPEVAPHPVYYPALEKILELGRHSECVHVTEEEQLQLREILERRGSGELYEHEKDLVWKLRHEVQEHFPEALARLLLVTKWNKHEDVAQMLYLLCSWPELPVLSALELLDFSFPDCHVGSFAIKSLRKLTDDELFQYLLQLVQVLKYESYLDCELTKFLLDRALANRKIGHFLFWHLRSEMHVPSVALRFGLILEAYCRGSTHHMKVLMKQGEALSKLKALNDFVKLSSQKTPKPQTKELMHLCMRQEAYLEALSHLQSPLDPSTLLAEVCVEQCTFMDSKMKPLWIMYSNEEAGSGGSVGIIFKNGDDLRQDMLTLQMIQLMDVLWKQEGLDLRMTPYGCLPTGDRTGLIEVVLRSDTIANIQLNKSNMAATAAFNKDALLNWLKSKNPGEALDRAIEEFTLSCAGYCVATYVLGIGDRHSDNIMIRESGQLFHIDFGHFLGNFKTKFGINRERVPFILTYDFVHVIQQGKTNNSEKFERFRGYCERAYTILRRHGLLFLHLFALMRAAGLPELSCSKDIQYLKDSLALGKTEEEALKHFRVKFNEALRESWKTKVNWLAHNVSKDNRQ
Chain of p110δ/p85α (P27986 whole entry partner): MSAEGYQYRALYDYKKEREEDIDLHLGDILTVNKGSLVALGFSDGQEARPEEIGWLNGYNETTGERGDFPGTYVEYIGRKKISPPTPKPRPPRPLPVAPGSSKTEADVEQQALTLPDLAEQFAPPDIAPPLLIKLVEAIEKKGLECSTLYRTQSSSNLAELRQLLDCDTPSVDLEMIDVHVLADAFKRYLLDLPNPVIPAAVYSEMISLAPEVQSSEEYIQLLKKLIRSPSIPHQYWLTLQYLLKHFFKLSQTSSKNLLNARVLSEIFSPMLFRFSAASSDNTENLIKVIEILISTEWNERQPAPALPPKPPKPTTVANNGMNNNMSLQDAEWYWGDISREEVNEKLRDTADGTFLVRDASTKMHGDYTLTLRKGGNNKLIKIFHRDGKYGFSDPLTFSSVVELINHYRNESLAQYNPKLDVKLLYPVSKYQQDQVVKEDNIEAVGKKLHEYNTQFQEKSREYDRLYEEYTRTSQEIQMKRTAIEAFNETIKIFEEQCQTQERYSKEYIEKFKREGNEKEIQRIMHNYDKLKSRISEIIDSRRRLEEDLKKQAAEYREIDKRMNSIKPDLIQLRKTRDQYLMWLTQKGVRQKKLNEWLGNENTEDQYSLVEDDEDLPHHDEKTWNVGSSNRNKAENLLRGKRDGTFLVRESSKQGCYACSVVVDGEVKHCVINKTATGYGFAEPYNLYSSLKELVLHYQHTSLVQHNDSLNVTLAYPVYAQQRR
Chain of p110γ (P48736 whole entry, canonical isoform): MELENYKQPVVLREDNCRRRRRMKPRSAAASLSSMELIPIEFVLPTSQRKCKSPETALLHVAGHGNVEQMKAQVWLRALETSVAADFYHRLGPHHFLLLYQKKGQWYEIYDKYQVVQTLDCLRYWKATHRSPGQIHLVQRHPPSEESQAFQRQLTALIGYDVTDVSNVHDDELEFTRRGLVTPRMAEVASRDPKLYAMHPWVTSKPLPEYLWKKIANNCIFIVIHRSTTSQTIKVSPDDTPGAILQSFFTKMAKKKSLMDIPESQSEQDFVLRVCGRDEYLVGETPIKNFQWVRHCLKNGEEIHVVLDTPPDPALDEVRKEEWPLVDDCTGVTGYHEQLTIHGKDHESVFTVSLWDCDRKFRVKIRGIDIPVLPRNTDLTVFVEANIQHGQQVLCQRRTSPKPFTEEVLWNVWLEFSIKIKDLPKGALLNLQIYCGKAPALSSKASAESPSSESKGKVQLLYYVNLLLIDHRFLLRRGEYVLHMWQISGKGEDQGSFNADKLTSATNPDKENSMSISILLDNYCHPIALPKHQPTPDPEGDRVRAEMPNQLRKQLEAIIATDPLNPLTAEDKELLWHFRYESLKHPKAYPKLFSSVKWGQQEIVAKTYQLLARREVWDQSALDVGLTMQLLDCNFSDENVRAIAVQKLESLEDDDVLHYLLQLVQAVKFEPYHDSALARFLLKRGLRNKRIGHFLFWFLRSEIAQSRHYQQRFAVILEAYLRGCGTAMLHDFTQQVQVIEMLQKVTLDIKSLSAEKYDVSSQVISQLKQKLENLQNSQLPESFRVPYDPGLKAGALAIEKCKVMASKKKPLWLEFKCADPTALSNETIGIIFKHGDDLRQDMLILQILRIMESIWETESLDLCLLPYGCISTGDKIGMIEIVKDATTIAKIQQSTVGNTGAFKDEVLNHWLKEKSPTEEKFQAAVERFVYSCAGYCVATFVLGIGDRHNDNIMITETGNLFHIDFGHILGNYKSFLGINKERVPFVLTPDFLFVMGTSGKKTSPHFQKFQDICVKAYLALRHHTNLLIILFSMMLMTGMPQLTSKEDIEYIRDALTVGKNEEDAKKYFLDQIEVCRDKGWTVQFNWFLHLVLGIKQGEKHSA

PI3Kγ IH % @ 1 uM [1] [%] | IC50 [1] [nM] | PI3Kβ IH % @ 1 uM [2] [%] | PI3Kδ IH % @ 1 uM [3] [%] | IC50 [3] [nM] | IC50 [2] [nM] | SMILES
94.1 | 44 | 62.5 | >100 | 5 | – | CS(=O)(=O)c1c[nH]c2ncnc(N3CCC[C@H]3c3nn4ccc(Cl)c4c(=O)n3-c3ccccc3)c12 [Compound 144]
>100 | 9 | 55.5 | >100 | 2 | – | O=c1c2c(Cl)ccn2nc([C@@H]2CCCN2c2ncnc3[nH]ccc23)n1-c1ccccc1 [Compound 145]
94.3 | 4 | 65.3 | >100 | 1 | – | O=c1c2c(Cl)ccn2nc([C@@H]2CCCN2c2ncnc3[nH]cc(F)c23)n1-c1ccccc1 [Compound 147]
83.0 | 173 | 19.5 | 86.7 | 44 | – | O=c1c2c(Cl)ccn2nc([C@@H]2CCN2c2ncnc3[nH]cc(F)c23)n1-c1ccccc1 [Compound 148]
74.2 | 348 | −35.9 | 95.9 | 52 | – | COCc1ccn2nc([C@@H]3CCCN3c3ncnc4[nH]cnc34)n(-c3ccccc3)c(=O)c12 [Compound 149]
92.6 | 92 | 31.5 | >100 | 3 | – | COCc1ccn2nc([C@@H]3CCCN3c3ncnc4[nH]cc(C#N)c34)n(-c3ccccc3)c(=O)c12 [Compound 150]
22.8 | – | 11.4 | 52.4 | – | – | COCc1ccn2nc([C@@H]3CCCN3c3nc(N)ncc3C(F)(F)F)n(-c3ccccc3)c(=O)c12 [Compound 151]
79.3 | 287 | 54.4 | 99.2 | 5 | – | N#Cc1c[nH]c2ncnc(N3CCOCC3c3nn4ccc(Cl)c4c(=O)n3-c3ccccc3)c12 (stereo not shown) [Compound 152]
94.9 | 133 | 56.0 | 96.4 | 23 | – | N#Cc1c[nH]c2ncnc(N3CCC[C@H]3c3nn4ccc(Cl)c4c(=O)n3Cc3ncccn3)c12 [Compound 155]
97.7 | 6 | 83.2 | >100 | 1 | 137 | N#Cc1c[nH]c2ncnc(N3CCC[C@H]3c3nn4ccc(Cl)c4c(=O)n3C3CCC3)c12 [Compound 162]
0.6 | – | −3.2 | 31.3 | – | – | NC(=O)c1c[nH]c2ncnc(N3CC[C@H]3c3nn4ccc(Cl)c4c(=O)n3-c3ccccc3)c12 [Compound 163]
64.9 | – | 22.9 | 62.3 | – | – | O=C(c1c[nH]c2ncnc(N3CCC[C@H]3c3nn4ccc(Cl)c4c(=O)n3-c3ccccc3)c12)N1CCOCC1 [Compound 164]
>100 | 2 | 71.3 | >100 | 1 | 400 | O=c1c2c(Cl)ccn2nc([C@@H]2CCN2c2ncnc3[nH]cc(C#CCO)c23)n1-c1ccccc1 [Compound 165]
>100 | 2 | >100 | 97.2 | 1 | 17 | Nc1ncc(-c2n[nH]c3ncnc(N4CCC[C@H]4c4nn5ccc(Cl)c5c(=O)n4-c4ccccc4)c23)cn1 [Compound 166]
>100 | 21 | 42.3 | >100 | 5 | – | Nc1ccc(-c2n[nH]c3ncnc(N4CCC[C@H]4c4nn5ccc(Cl)c5c(=O)n4-c4ccccc4)c23)cn1 [Compound 167]
95.1 | – | 98.8 | >100 | – | – | COc1ncc(-c2n[nH]c3ncnc(N4CCC[C@H]4c4nn5ccc(Cl)c5c(=O)n4-c4ccccc4)c23)cn1 [Compound 168]

More lines, now with the values behind:

SMILES | PI3Kγ IH % @ 1 uM [1] [%] | IC50 [1] [nM] | PI3Kβ IH % @ 1 uM [2] [%] | PI3Kδ IH % @ 1 uM [3] [%] | IC50 [3] [nM] | IC50 [2] [nM]
O=c1c2c(Cl)ccn2nc([C@@H]2CCCN2c2nc(F)nc3[nH]cnc23)n1-c1ccccc1 [Compound 146] | 97.3 | 9 | 77.9 | >100 | 1 | 120
O=c1c2c(Cl)ccn2nc([C@@H]2COCCN2c2ncnc3[nH]cnc23)n1-c1ccccc1 [Compound 153] | 85.8 | – | 56.5 | >100 | – | –
CC(Nc1nc(N)ncc1C(F)(F)F)c1cc2ncc(Cl)n2c(=O)n1-c1ccccc1 (stereo not shown) [Compound 154] | 93.7 | 40 | 56.7 | 97.6 | 3 | –
O=c1c2c(Cl)ccn2nc([C@@H]2CCCN2c2ncnc3[nH]cnc23)n1Cc1ncccn1 [Compound 156] | 64.0 | – | 42.2 | 83.4 | 169 | –
O=c1c2c(Cl)ccn2nc([C@@H]2C[C@H](F)CN2c2ncnc3[nH]cnc23)n1Cc1ccccn1 [Compound 157] | 79.9 | 280 | 39.5 | >100 | 21 | –
N#Cc1c[nH]c2ncnc(N3C[C@@H](F)C[C@H]3c3nn4ccc(Cl)c4c(=O)n3Cc3ccccn3)c12 [Compound 158] | >100 | 46 | 71.1 | >100 | 6 | 473
N#Cc1c[nH]c2ncnc(N3CC(F)(F)C[C@H]3c3nn4ccc(Cl)c4c(=O)n3Cc3ccccn3)c12 [Compound 160] | 34.3 | – | 11.4 | 80.2 | 140 | –
O=c1c2c(Cl)ccn2nc([C@@H]2CC(F)(F)CN2c2ncnc3[nH]cnc23)n1Cc1ncccn1 [Compound 161] | −8.4 | – | 15.3 | 45.7 | – | –
Nc1ccc(-c2n[nH]c3ncnc(N4CC[C@H]4c4nn5ccc(Cl)c5c(=O)n4-c4ccccc4)c23)cn1 [Compound 169] | 31.2 | – | −21.1 | 88.0 | 4 | –
COc1ccc(-c2n[nH]c3ncnc(N4CC[C@H]4c4nn5ccc(Cl)c5c(=O)n4-c4ccccc4)c23)cn1 [Compound 170] | 66.5 | – | 4.6 | 96.1 | 5 | –
Nc1ncc(-c2n[nH]c3ncnc(N4CC[C@H]4c4nn5ccc(Cl)c5c(=O)n4-c4ccccc4)c23)cn1 [Compound 171] | 75.3 | 130 | 25.2 | 96.6 | 5 | –
COc1ncc(-c2n[nH]c3ncnc(N4CC[C@H]4c4nn5ccc(Cl)c5c(=O)n4-c4ccccc4)c23)cn1 [Compound 172] | 79.8 | 297 | 38.2 | 99.6 | 2 | –
N#Cc1ccc(-c2n[nH]c3ncnc(N4CC[C@H]4c4nn5ccc(Cl)c5c(=O)n4-c4ccccc4)c23)cn1 [Compound 173] | 48.7 | – | 25.7 | 96.3 | 4 | –
